ChEMBL document CHEMBL1201862, “PubChem BioAssay data set” (2004)
Activity calls are given as the source filed them. For most assays here, no stated cut-off is given here; in the data, actives have a measured EC50 and inactives only a lower limit.

What was measured:
Protein RecA = target: T1, Protein RecA (Mycobacterium tuberculosis, UniProt P9WHJ3); assay: Fluorescence Cell-Free Homogeneous Dose Retest to Identify Inhibitors of RecA-Intein Splicing Activity. [Related pubchem assays (depositor defined):AID2097, AID2223, AID489010, AID492950]; type: functional
T1 sequence (P9WHJ3 whole entry): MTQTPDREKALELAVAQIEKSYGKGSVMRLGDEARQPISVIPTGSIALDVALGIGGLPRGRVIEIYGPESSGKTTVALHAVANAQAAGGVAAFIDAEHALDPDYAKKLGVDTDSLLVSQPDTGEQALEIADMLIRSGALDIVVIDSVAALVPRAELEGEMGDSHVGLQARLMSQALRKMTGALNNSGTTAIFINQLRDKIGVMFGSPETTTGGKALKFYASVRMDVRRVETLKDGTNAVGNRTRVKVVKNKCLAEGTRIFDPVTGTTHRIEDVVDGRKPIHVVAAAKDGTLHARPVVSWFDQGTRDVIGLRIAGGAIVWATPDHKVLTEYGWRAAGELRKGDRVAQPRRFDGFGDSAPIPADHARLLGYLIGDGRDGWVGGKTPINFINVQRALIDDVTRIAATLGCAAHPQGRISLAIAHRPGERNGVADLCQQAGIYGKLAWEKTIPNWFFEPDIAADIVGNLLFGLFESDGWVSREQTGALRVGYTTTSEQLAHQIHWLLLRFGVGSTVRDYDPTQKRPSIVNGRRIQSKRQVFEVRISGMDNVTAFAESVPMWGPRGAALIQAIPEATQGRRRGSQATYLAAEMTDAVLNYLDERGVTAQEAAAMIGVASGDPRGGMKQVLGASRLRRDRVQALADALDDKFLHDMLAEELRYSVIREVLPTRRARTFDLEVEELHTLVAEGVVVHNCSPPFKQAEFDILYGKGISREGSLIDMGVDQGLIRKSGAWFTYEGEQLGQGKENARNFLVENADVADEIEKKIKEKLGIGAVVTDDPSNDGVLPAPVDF

[1] = system: Streptococcus sp. 'group A'; assay: growth inhibition of control SK(-) GAS strain, dose response, counter-screen for streptokinase expression inhibitor project, luminescence, kanamycin, BacTiterGlo, confirmation (AID 1900); type: functional, organism-based
[2] = target: T2, Replicative DNA helicase DnaB (Mycobacterium tuberculosis, UniProt P9WMR3); assay: DnaB intein splicing inhibitors, dose response, biochemical, cell-free fluorescence (AID 449749); type: functional
T2 sequence (P9WMR3 whole entry): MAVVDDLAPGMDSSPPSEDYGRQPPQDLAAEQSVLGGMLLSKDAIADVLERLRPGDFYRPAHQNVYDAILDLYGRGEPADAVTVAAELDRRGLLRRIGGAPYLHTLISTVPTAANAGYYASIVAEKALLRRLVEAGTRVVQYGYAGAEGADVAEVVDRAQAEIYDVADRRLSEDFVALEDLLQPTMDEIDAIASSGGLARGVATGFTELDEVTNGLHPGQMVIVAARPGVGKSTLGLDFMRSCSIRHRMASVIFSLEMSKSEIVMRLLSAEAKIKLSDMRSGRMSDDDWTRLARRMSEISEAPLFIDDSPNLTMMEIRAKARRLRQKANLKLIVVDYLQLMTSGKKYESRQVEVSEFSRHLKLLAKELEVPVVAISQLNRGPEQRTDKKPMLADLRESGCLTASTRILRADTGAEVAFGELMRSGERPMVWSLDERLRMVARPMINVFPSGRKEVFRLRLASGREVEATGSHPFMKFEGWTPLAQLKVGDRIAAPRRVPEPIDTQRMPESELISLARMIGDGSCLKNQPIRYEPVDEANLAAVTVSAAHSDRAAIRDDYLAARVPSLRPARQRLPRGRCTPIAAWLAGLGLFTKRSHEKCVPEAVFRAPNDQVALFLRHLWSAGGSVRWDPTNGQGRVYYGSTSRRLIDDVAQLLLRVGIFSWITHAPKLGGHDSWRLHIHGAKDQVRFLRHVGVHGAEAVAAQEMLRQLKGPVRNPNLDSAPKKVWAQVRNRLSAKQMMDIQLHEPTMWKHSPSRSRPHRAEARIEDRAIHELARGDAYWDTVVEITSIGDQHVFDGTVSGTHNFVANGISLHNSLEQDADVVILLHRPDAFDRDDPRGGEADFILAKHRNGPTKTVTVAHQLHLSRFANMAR

Streptococcus = assay: Group A Streptococcus viability loss, dose response, counter-screen for streptokinase expression inhibitor project, luminescence, BacTiterGlo (AID 1915); type: functional, organism-based;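 further: potency for reduction of bacterial viability or growth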
[3] = HeLa cell cytotoxicity, dose response, cytotoxicity control for MgcRacGAP inhibitor project (AID 624300); type: functional

CCCCCCCCCCOC(=O)C[n+]1c(COc2ccccc2OC)n(C)c2ccccc21
active: EC50 (Protein RecA) 8.91 µM | EC50 [1] 6.69 µM | AC50 [2] 3.92 µM | EC50 (Streptococcus) 12.7 µM

Cc1oc2c(c1C(=O)NCc1cccnc1)C(=O)c1ccccc1C2=O
active: EC50 (Protein RecA) 0.0639 µM | EC50 [1] 1.31 µM | AC50 [2] 0.438 µM | EC50 (Streptococcus) 2.56 µM

O=c1ccc2c(-c3ccccc3S(=O)(=O)O)c3ccc(O)c(O)c3oc-2c1O [PYROGALLOL RED]
active: CC50 [3] 100 µM
